Data: ChEMBL document CHEMBL3616395, “Discovery of 4-arylamido 3-methyl isoxazole derivatives as novel FMS kinase inhibitors” (Eur J Med Chem, 2015)
Active and inactive are the calls of the source. The calls are words filed in the database; no cut-off is given here.

What was measured:
[1] = target: Mitogen-activated protein kinase 10 (Homo sapiens) (UniProt P53779); test: Inhibition of JNK3 (unknown origin) at 10 uM after 40 mins by scintillation counting analysis
[2] = target: RAF proto-oncogene serine/threonine-protein kinase (Homo sapiens, UniProt P04049); test: Inhibition of RAF1 (unknown origin) at 10 uM after 40 mins by scintillation counting analysis
[3] = target: Angiopoietin-1 receptor (Homo sapiens) (UniProt Q02763); test: Inhibition of TIE2 (unknown origin) at 10 uM after 40 mins by scintillation counting analysis
[4] = target: Proto-oncogene tyrosine-protein kinase Src (Homo sapiens) (UniProt P12931); test: Inhibition of c-SRC (unknown origin) at 10 uM after 40 mins by scintillation counting analysis
[5] = target: Fibroblast growth factor receptor 3 (Homo sapiens) (UniProt P22607); test: Inhibition of FGFR3 (unknown origin) at 10 uM after 40 mins by scintillation counting analysis
[6] = target: Vascular endothelial growth factor receptor 2 (Homo sapiens) (UniProt P35968); test: Inhibition of VEGFR2 (unknown origin) at 10 uM after 40 mins by scintillation counting analysis
[7] = tested on: Serine/threonine-protein kinase B-raf (Homo sapiens), P15056 [V600E]; test: Inhibition of BRAF V599E mutant (unknown origin) at 10 uM after 40 mins by scintillation counting analysis
[8] = target: Tyrosine-protein kinase ITK/TSK (Homo sapiens) (UniProt Q08881); test: Inhibition of ITK (unknown origin) at 10 uM after 40 mins by scintillation counting analysis
[9] = target: Mitogen-activated protein kinase 3 (Homo sapiens) (UniProt P27361); test: Inhibition of ErK1 (unknown origin) at 10 uM after 40 mins by scintillation counting analysis
[10] = target: Serine/threonine-protein kinase B-raf (Homo sapiens, UniProt P15056); test: Inhibition of BRAF (unknown origin) at 10 uM after 40 mins by scintillation counting analysis
Chain of Serine/threonine-protein kinase B-raf (P15056 whole entry): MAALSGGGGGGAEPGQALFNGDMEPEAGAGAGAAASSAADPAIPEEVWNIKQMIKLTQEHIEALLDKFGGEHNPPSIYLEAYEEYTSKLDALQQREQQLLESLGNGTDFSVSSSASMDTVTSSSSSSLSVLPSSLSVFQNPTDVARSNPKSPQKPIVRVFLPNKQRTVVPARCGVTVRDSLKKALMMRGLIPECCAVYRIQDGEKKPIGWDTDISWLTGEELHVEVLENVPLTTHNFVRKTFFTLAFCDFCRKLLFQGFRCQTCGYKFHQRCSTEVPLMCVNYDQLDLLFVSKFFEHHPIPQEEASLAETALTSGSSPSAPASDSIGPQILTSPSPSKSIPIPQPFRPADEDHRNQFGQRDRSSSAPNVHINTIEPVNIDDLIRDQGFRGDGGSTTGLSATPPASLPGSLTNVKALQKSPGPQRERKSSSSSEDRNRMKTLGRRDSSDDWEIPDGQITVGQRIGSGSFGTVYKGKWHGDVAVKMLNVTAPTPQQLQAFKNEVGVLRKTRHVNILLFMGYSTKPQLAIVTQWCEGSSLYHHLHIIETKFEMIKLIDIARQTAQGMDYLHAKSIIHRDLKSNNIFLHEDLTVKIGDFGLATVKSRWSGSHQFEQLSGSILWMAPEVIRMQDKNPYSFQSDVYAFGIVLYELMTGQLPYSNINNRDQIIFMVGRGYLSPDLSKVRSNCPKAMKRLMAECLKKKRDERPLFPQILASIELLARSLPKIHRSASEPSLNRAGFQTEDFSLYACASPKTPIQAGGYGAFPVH

Chain of Serine/threonine-protein kinase B-raf (Homo sapiens), P15056 [V600E] (P15056 whole entry V600E): as the sequence (P15056 whole entry) above, with V600E counted along it
Chain of Tyrosine-protein kinase ITK/TSK (Homo sapiens) (Q08881 whole entry): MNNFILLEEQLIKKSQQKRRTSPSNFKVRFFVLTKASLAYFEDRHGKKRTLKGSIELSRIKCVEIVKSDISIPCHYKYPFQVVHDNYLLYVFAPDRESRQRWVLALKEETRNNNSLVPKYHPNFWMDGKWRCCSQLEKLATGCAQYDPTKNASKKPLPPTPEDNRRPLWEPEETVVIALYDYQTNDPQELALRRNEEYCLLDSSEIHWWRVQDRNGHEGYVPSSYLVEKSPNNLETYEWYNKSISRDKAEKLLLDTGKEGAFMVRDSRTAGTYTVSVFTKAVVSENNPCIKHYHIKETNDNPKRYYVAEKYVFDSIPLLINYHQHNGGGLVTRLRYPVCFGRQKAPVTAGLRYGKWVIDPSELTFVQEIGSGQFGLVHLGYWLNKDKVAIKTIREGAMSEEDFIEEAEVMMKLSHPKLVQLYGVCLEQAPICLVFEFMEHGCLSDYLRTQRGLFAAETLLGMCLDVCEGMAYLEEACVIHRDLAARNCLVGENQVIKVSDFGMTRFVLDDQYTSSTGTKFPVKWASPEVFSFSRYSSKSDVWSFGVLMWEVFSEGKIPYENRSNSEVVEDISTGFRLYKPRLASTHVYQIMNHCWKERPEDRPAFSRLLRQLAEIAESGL
Chain of Proto-oncogene tyrosine-protein kinase Src (Homo sapiens) (P12931 2-536 limits assumed): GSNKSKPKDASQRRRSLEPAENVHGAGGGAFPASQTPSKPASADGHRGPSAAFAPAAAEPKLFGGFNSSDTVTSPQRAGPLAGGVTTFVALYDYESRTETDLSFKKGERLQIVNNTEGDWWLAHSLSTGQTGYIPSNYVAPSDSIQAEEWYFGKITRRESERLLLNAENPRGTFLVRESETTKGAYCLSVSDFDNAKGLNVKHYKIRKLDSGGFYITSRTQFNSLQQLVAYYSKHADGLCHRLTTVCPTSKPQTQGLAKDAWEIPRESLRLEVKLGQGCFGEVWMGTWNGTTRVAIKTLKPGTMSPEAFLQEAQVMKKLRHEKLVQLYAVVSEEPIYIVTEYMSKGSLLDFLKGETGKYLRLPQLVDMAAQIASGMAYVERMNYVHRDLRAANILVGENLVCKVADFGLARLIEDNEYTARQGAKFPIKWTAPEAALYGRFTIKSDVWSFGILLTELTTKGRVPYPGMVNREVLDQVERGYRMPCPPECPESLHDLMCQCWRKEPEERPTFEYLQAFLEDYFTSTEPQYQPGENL
Chain of Mitogen-activated protein kinase 3 (Homo sapiens) (P27361 whole entry): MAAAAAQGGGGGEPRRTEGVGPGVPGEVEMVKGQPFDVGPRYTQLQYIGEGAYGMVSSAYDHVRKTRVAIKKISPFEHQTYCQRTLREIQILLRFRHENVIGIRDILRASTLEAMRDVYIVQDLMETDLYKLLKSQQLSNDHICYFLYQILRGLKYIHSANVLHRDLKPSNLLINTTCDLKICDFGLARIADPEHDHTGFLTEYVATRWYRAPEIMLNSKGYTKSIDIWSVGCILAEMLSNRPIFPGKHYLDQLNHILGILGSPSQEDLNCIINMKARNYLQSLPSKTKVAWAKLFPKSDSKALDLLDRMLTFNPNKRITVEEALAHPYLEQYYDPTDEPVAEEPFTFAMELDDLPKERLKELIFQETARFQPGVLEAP
Chain of Angiopoietin-1 receptor (Homo sapiens) (Q02763 whole entry): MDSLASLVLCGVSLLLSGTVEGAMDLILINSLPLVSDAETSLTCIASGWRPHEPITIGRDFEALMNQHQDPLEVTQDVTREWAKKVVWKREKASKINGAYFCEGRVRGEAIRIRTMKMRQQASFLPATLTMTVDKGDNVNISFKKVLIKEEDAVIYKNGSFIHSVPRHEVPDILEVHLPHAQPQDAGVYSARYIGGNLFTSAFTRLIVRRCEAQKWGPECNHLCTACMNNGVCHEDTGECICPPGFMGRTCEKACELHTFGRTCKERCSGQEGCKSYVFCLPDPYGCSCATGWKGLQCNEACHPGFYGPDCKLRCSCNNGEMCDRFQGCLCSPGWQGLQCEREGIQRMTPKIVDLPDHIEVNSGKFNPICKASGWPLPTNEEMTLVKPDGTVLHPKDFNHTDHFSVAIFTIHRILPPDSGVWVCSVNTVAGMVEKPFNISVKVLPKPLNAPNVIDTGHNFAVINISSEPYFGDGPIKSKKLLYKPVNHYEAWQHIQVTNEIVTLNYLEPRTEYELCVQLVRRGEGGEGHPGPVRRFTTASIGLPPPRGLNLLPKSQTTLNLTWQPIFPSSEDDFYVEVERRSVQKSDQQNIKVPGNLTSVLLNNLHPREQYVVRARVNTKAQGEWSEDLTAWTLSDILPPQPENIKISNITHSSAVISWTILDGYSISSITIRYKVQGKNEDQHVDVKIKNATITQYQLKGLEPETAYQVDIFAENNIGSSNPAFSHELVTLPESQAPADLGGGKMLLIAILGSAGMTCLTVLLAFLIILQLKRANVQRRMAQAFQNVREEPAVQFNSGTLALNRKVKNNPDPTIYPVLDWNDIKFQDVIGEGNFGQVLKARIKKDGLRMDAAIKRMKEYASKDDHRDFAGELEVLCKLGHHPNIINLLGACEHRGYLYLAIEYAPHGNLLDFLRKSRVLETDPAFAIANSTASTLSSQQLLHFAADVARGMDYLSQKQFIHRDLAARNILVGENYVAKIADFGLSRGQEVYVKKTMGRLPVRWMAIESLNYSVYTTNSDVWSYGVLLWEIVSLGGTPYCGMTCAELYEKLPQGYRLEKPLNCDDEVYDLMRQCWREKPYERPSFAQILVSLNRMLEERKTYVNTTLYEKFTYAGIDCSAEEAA
Chain of Fibroblast growth factor receptor 3 (Homo sapiens) (P22607 23-806 limits assumed): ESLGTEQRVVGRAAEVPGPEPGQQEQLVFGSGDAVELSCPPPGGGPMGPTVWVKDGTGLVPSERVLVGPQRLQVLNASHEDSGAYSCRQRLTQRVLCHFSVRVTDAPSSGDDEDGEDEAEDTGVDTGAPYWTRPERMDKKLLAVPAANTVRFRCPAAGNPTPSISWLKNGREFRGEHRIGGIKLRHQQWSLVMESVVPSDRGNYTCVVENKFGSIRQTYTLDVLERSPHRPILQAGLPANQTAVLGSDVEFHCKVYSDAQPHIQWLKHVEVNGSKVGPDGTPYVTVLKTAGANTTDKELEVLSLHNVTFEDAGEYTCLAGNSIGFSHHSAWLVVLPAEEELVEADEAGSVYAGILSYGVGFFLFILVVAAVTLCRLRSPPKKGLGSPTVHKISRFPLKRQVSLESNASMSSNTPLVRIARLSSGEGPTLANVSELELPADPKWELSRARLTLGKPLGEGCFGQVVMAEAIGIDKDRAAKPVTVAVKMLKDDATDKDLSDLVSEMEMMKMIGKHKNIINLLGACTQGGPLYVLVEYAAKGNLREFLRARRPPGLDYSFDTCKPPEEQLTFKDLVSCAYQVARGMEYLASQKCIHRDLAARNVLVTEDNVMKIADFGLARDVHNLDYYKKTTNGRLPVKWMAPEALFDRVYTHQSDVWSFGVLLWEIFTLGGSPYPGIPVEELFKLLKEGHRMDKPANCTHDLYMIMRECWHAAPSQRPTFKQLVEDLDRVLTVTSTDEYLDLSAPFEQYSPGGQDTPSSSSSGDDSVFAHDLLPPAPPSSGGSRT
Chain of RAF proto-oncogene serine/threonine-protein kinase (P04049 whole entry): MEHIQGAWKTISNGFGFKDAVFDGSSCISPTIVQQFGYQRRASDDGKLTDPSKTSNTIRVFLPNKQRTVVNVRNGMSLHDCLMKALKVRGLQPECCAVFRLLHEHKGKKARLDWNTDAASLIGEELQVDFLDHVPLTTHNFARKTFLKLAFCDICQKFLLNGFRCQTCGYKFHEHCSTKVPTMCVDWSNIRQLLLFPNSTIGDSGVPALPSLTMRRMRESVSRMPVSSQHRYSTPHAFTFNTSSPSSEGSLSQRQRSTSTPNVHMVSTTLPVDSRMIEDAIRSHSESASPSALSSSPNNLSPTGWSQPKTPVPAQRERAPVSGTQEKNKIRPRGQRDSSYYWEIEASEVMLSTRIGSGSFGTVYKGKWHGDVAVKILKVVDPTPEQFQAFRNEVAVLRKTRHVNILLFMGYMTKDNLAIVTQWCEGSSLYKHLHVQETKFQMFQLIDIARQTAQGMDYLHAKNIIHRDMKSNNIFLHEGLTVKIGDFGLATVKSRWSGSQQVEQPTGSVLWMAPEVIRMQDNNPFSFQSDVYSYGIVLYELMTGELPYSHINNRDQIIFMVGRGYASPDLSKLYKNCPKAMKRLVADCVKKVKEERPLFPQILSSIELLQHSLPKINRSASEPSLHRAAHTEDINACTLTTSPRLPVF

inhibition [1]: inactive
inhibition [2]: inactive
inhibition [3]: inactive
inhibition [4]: inactive
inhibition [5]: inactive
inhibition [6]: inactive
inhibition [7]: inactive
inhibition [8]: inactive
inhibition [9]: inactive
inhibition [10]: inactive
SMILES: Cc1ccccc1C(=O)Nc1cnoc1C
